This note sets out measurements from patent publication US20080234646A1, “Odour-Preventing, Water-Absorbing Compositions” (priority 2005, published 2008).

For the experiment, the target named is T1, urease (from jack beans) (Canavalia ensiformis, UniProt P07374).
T1 construct: urease (from jack beans); lyophilized 5 U/mg for urea assay in serum; purchased Merck KGaA, Germany; host or cells: jack beans (natural source)
Description: odor-preventing effect: ammonia release from urea/urease solution, read with a diffusion tube. The class given is biochemical. The note with it: 2 g composition, 30 mg urease, 50 ml 0.9% NaCl with 8.56 g/l urea, 23° C. The procedure: 100 g lots of water-absorbing polymer from Example 1 were mixed in a tumble mixer with different amounts of N-cyclohexylthiophosphoramide, N-(n-butyl)thiophosphoramide or N-(n-propyl)thiophosphoramide, for 20 minutes each.
To determine the odor-preventing effect, 2 g of each of the compositions produced above were placed in a 100 ml Erlenmeyer flask and admixed with a freshly prepared solution of 30 mg of urease (from jack beans; lyophilized 5 U/mg for urea assay in serum; Merck KGaA, Germany) and 50 ml of 0.9% sodium chloride solution, the sodium chloride solution containing 8.56 g/l of urea, and sealed with a stopper having an internal diffusion tublet (Drager® Röhrchen; ammonia 20/a-D, 20 to 1500 ppm*h). The measured value was read off every 30 minutes. The measurement was discontinued after 6 hours. The test was carried out at 23° C.

The mark [1] stands for this setting: 0.01 % by weight substituted thiophosphoramide in composition with water-absorbing polymer.
Setting [2] is: 0.05 % by weight substituted thiophosphoramide in composition with water-absorbing polymer.
The mark [3] stands for this setting: 0.15 % by weight substituted thiophosphoramide in composition with water-absorbing polymer.
Setting [4] is: 0.25 % by weight substituted thiophosphoramide in composition with water-absorbing polymer.
[5] abbreviates: 0.35 % by weight substituted thiophosphoramide in composition with water-absorbing polymer.
Setting [6] is: 0.50 % by weight substituted thiophosphoramide in composition with water-absorbing polymer.
Where [7] appears, read: 1.50 % by weight substituted thiophosphoramide in composition with water-absorbing polymer.

T1 sequence (P07374 whole entry, looked up): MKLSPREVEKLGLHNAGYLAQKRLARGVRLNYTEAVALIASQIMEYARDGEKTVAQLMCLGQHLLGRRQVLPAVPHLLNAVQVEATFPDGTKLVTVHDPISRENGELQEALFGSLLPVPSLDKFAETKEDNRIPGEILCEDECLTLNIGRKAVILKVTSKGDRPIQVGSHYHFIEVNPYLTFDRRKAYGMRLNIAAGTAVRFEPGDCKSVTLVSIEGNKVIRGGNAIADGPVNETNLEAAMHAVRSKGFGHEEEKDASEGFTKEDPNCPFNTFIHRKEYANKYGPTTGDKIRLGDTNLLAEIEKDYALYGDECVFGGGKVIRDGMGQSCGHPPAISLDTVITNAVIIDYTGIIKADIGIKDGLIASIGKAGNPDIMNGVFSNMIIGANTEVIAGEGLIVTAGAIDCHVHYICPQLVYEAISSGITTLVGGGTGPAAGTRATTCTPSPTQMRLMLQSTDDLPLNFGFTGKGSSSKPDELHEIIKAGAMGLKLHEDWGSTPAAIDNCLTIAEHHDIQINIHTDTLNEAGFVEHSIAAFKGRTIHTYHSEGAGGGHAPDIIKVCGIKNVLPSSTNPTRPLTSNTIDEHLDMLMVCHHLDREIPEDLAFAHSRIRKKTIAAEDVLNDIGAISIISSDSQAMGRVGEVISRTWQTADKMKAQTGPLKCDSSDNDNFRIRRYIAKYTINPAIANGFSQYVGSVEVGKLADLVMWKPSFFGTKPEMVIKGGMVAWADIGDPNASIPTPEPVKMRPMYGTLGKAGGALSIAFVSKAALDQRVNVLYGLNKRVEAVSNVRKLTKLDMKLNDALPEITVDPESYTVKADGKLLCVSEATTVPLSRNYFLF

For `NP(N)(=S)NC1CCCCC1` [R = cyclohexyl, N-cyclohexylthiophosphoramide, reference compound], the “ammonia after 6 hours” value runs as follows: under setting [1], “− (more than 50 ppm of ammonia after 6 hours)”; under setting [2], “− (more than 50 ppm of ammonia after 6 hours)”; under setting [3], “− (more than 50 ppm of ammonia after 6 hours)”; under setting [4], “− (more than 50 ppm of ammonia after 6 hours)”; under setting [5], “+ (less than 50 ppm of ammonia after 6 hours)”; under setting [6], “+ (less than 50 ppm of ammonia after 6 hours)”. For the same compound, the “ammonia after 6 hours” value under setting [7] is on record as “+ (less than 50 ppm of ammonia after 6 hours)”.

Regarding `CCCCNP(N)(N)=S` [R = n-butyl, N-(n-butyl)thiophosphoramide], the “ammonia after 6 hours” value reads like this: under setting [1], “+ (less than 50 ppm of ammonia after 6 hours)”; under setting [2], “+ (less than 50 ppm of ammonia after 6 hours)”; under setting [3], “+ (less than 50 ppm of ammonia after 6 hours)”; under setting [4], “+ (less than 50 ppm of ammonia after 6 hours)”; under setting [5], “+ (less than 50 ppm of ammonia after 6 hours)”; under setting [6], “+ (less than 50 ppm of ammonia after 6 hours)”. For the same compound, under setting [7], the “ammonia after 6 hours” value is listed as “+ (less than 50 ppm of ammonia after 6 hours)”.

Take `CCCNP(N)(N)=S` [R = n-propyl, N-(n-propyl)thiophosphoramide]: the “ammonia after 6 hours” value is “+ (less than 50 ppm of ammonia after 6 hours)” under setting [1]; “+ (less than 50 ppm of ammonia after 6 hours)” under setting [2]; “+ (less than 50 ppm of ammonia after 6 hours)” under setting [3]; “+ (less than 50 ppm of ammonia after 6 hours)” under setting [4]; “+ (less than 50 ppm of ammonia after 6 hours)” under setting [5]; “+ (less than 50 ppm of ammonia after 6 hours)” under setting [6]. The “ammonia after 6 hours” value under setting [7] is reported as “+ (less than 50 ppm of ammonia after 6 hours)”.
